This test addresses T1, human A2a receptor (Homo sapiens, UniProt P29274).
T1 construct: purchased Perkin-Elmer RBHA2AM400UA; host or cells: HEK293 cells, used as a membrane preparation
As to the kind of experiment: A2a receptor competition binding assay (Scintillation Proximity). The settings on record: membranes from HEK293 cells expressing human A2a receptor; 0.5 nM tritiated ligand; Cheng-Prusoff; read-out: A2a Ki. In a few lines:
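HEK293 membranes bearing the human receptor, pretreated with adenosine deaminase, competed against 0.5 nM tritiated pyrazolotriazolopyrimidine antagonist with compound at 3000–0.15 nM final in DPBS plus 10 mM MgCl2. SPA bead readout after 1 h at room temperature; Ki from EC50 via Cheng-Prusoff.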

This is an account of results in patent US11498923B2 (Merck Sharp & Dohme Corp., priority 2017, dated 2022).

T1 sequence (P29274 whole entry): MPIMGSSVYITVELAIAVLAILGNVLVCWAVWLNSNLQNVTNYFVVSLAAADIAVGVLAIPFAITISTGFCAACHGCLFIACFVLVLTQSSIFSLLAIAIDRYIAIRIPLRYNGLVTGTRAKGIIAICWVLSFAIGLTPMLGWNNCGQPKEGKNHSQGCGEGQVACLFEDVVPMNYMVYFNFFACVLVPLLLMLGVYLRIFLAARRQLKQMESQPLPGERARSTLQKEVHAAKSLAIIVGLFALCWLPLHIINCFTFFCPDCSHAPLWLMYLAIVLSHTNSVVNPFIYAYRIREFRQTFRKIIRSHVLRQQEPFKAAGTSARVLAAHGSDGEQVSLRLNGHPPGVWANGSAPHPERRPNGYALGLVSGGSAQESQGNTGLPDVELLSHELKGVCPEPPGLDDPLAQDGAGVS

Take `CC(C)(C)OC(=O)N1CCC2(CCCN(C(=O)c3cn4c(N)nc5c(F)cccc5c4n3)C2)C1` (stereo not shown) [Ex-260, tert-butyl 7-(5-amino-7-fluoroimidazo[1,2-c]quinazoline-2-carbonyl)-2,7-diazaspiro[4.5]decane-2-carboxylate]: the Ki is 15 nM.
On to `Nc1nc2c(F)cccc2c2nc(C(=O)NCc3ccccc3N3CCNCC3)cn12` [Ex-261, 5-amino-7-fluoro-N-(2-(piperazin-1-yl)benzyl)imidazo[1,2-c]quinazoline-2-carboxamide], for which the Ki amounted to 5.4 nM.
The same measure for `CC(C)(C)OC(=O)N1CCC2(CCN(C(=O)c3cn4c(N)nc5c(F)cccc5c4n3)CC2)C1` [Ex-262, tert-butyl 8-(5-amino-7-fluoroimidazo[1,2-c]quinazoline-2-carbonyl)-2,8-diazaspiro[4.5]decane-2-carboxylate]: 53 nM.
Turning to `Nc1nc2c(F)cccc2c2nc(C(=O)NCc3ccccc3OC3CCN(c4ccccn4)CC3)cn12` [Ex-263, 5-amino-7-fluoro-N-(2-((1 (pyridin-2-yl)piperidin-4-yl)oxy)benzyl)imidazo[1,2-c]quinazoline-2-carboxamide], the inhibition constant (Ki) came to 2.9 nM.
With `CC(=O)N1CCN(c2ccccc2CNC(=O)c2cn3c(N)nc4c(F)cccc4c3n2)CC1` [Ex-264, N-(2-(4-acetylpiperazin-1-yl)benzyl)-5-amino-7-fluoroimidazo[1,2-c]quinazoline-2-carboxamide], the Ki turned out to be 2.5 nM.
The same measure for `CC(C)(C)OC(=O)N1CCCC2(CCN(C(=O)c3cn4c(N)nc5c(F)cccc5c4n3)CC2)C1` [Ex-265, tert-butyl 9-(5-amino-7-fluoroimidazo[1,2-c]quinazoline-2-carbonyl)-2,9-diazaspiro[5.5]undecane-2-carboxylate]: 86 nM.
In the case of `Nc1nc2c(F)cccc2c2nc(C(=O)N3CCCC4(CCNC4)C3)cn12` (stereo not shown) [Ex-266, (5-amino-7-fluoroimidazo[1,2-c]quinazolin-2-yl)(2,7-diazaspiro[4.5]decan-7-yl)methanone], the Ki was 220 nM.
For `Nc1nc2c(F)cccc2c2nc(C(=O)N3CCC4(CCNC4)CC3)cn12` [Ex-267, (5-amino-7-fluoroimidazo[1,2-c]quinazolin-2-yl)(2,8-diazaspiro[4.5]decan-8-yl)methanone], the Ki turned out to be 710 nM.
The figure for `Nc1nc2c(F)cccc2c2nc(C(=O)N3CCCC4(CCNC4)C3)cn12` (stereo not shown) [Ex-268, (5-amino-7-fluoroimidazo[1,2-c]quinazolin-2-yl)(2,7-diazaspiro[4.5]decan-7-yl)methanone] is 66 nM; for `CC(=O)N1CCC2(CCN(C(=O)c3cn4c(N)nc5c(F)cccc5c4n3)CC2)C1` [Ex-269, 1-(8-(5-amino-7-fluoroimidazo[1,2-c]quinazoline-2-carbonyl)-2,8-diazaspiro[4.5]decan-2-yl)ethan-1-one] it is 200 nM.
The same measure for `Nc1nc2c(F)cccc2c2nc(C(=O)N3CCC4(CCCNC4)CC3)cn12` [Ex-270, (5-amino-7-fluoroimidazo[1,2-c]quinazolin-2-yl)(2,9-diazaspiro[5.5]undecan-9-yl)methanone]: 100 nM; for `Nc1nc2c(F)cccc2c2nc(C(=O)NCc3ccccc3N3CCN(CCCO)CC3)cn12` [Ex-271, 5-amino-7-fluoro-N-(2-(4-(3-hydroxypropyl)-piperazin-1-yl)benzyl)-imidazo[1,2-c]-quinazoline-2-carboxamide]: 12 nM.
Take `Nc1nc2c(F)cccc2c2nc(C(=O)N3CCC4(CCNC4)C3)cn12` (stereo not shown) [Ex-272, (5-amino-7-fluoroimidazo[1,2-c]quinazolin-2-yl)(2,7-diazaspiro[4.4]nonan-2-yl)methanone]: the inhibition constant (Ki) stood at 380 nM.
The same measure for `Nc1nc2c(F)cccc2c2nc(C(=O)N3CCC4(CCN(Cc5ccc(F)cc5)C4)C3)cn12` (stereo not shown) [Ex-273, (5-amino-7-fluoroimidazo[1,2-c]quinazolin-2-yl)(7-(4-fluorobenzyl)-2,7-diazaspiro[4.4]nonan-2-yl)methanone]: 110 nM; for `CC(=O)N1CCC2(CCN(C(=O)c3cn4c(N)nc5c(F)cccc5c4n3)C2)C1` (stereo not shown) [Ex-274, 1-(7-(5-amino-7-fluoroimidazo[1,2-c]quinazoline-2-carbonyl)-2,7-diazaspiro[4.4]nonan-2-yl)ethan-1-one]: 32 nM; for `N#Cc1ccc(N2CCC3(CCN(C(=O)c4cn5c(N)nc6c(F)cccc6c5n4)C3)C2)c(F)c1` (stereo not shown) [Ex-275, 4-(7-(5-amino-7-fluoroimidazo[1,2-c]quinazoline-2-carbonyl)-2,7-diazaspiro[4.4]nonan-2-yl)-3-fluorobenzonitrile]: 43 nM.
Take `CCCN1CCC2(CCCN(C(=O)c3cn4c(N)nc5c(F)cccc5c4n3)C2)C1` (stereo not shown) [Ex-276, (5-amino-7-fluoroimidazo[1,2-c]quinazolin-2-yl)(2-propyl-2,7-diazaspiro[4.5]decan-7-yl)methanone]: the Ki is 130 nM.
Consider `CCCN1CCC2(CCN(C(=O)c3cn4c(N)nc5c(F)cccc5c4n3)CC2)C1` [Ex-277, (5-amino-7-fluoroimidazo[1,2-c]quinazolin-2-yl)(2-propyl-2,8-diazaspiro[4.5]decan-8-yl)methanone], for which the Ki is 430 nM.
The same measure for `CC(=O)N1CCCC2(CCN(C(=O)c3cn4c(N)nc5c(F)cccc5c4n3)CC2)C1` [Ex-278, 1-(9-(5-amino-7-fluoroimidazo[1,2-c]quinazoline-2-carbonyl)-2,9-diazaspiro[5.5]undecan-2-yl)ethan-1-one]: 61 nM; for `CCCN1CCCC2(CCN(C(=O)c3cn4c(N)nc5c(F)cccc5c4n3)CC2)C1` [Ex-279, (5-amino-7-fluoroimidazo[1,2-c]quinazolin-2-yl)(2-propyl-2,9-diazaspiro[5.5]undecan-9-yl)methanone]: 34 nM; for `CCN1CCC2(CCN(C(=O)c3cn4c(N)nc5c(F)cccc5c4n3)C2)C1` (stereo not shown) [Ex-280, (5-amino-7-fluoroimidazo[1,2-c]quinazolin-2-yl)(7-ethyl-2,7-diazaspiro[4.4]nonan-2-yl)methanone]: 100 nM.
As for `Nc1nc2c(F)cccc2c2nc(C(=O)N3CCC4(CCN(CCc5ccc(F)cc5)C4)C3)cn12` (stereo not shown) [Ex-281, (5-amino-7-fluoroimidazo[1,2-c]quinazolin-2-yl)(7-(4-fluorophenethyl)-2,7-diazaspiro[4.4]nonan-2-yl)methanone], the Ki was found to be 170 nM.
The same measure for `Nc1nc2c(F)cccc2c2nc(C(=O)N3CCC4(CCN(C(=O)Cc5ccc(F)c(F)c5)C4)C3)cn12` (stereo not shown) [Ex-282, 1-(7-(5-amino-7-fluoroimidazo[1,2-c]quinazoline-2-carbonyl)-2,7-diazaspiro[4.4]nonan-2-yl)-2-(3,4-difluorophenyl)ethan-1-one]: 32 nM; for `Nc1nc2c(F)cccc2c2nc(C(=O)N3CCc4cc(CC(=O)Nc5ccccn5)ccc4C3)cn12` [Ex-283, 2-(2-(5-amino-7-fluoroimidazo[1,2-c]quinazoline-2-carbonyl)-1,2,3,4-tetrahydroisoquinolin-6-yl)-N-(pyridin-2-yl)acetamide]: 21 nM.
Take `Nc1nc2c(F)cccc2c2nc(C(=O)N3CCN4CCCC[C@@H]4C3)cn12` [Ex-284, (R)-(5-amino-7-fluoroimidazo[1,2-c]quinazolin-2-yl)(octahydro-2H-pyrido[1,2-a]pyrazin-2-yl)methanone]: the inhibition constant (Ki) came out at 33 nM.
In the case of `Nc1nc2c(F)cccc2c2nc(C(=O)N3CCN4CCCC[C@H]4C3)cn12` [Ex-285, (S)-(5-amino-7-fluoroimidazo[1,2-c]quinazolin-2-yl)(octahydro-2H-pyrido[1,2-a]pyrazin-2-yl)methanone], the inhibitory constant (Ki) worked out at 40 nM.
The figure for `Nc1nc2c(F)cccc2c2nc(C(=O)N3CCc4cc(NC(=O)c5ccccn5)ccc4C3)cn12` [Ex-286, N-(2-(5-amino-7-fluoroimidazo[1,2-c]quinazoline-2-carbonyl)-1,2,3,4-tetrahydroisoquinolin-6-yl)picolinamide] is 19 nM; for `Nc1nc2c(F)cccc2c2nc(C(=O)N3CCc4cc(-c5cncnc5)ccc4C3)cn12` [Ex-287, (5-amino-7-fluoroimidazo[1,2-c]quinazolin-2-yl)(6-(pyrimidin-5-yl)-3,4-dihydroisoquinolin-2(1H)-yl)methanone] it is 35 nM.
Regarding `CC(=O)Nc1ccc2c(c1)CCN(C(=O)c1cn3c(N)nc4c(F)cccc4c3n1)C2` [Ex-288, N-(2-(5-amino-7-fluoroimidazo[1,2-c]quinazoline-2-carbonyl)-1,2,3,4-tetrahydroisoquinolin-6-yl)acetamide], the Ki is 55 nM.
The same measure for `Nc1nc2c(F)cccc2c2nc(C(=O)N3CCc4cc(-c5ccc(F)c(F)c5)ccc4C3)cn12` [Ex-289, (5-amino-7-fluoroimidazo[1,2-c]quinazolin-2-yl)(6-(3,4-difluorophenyl)-3,4-dihydroisoquinolin-2(1H)-yl)methanone]: 640 nM; for `Nc1nc2c(F)cccc2c2nc(C(=O)N3CCc4ccc(CC(=O)Nc5ccccn5)cc4C3)cn12` [Ex-290, 2-(2-(5-amino-7-fluoroimidazo[1,2-c]quinazoline-2-carbonyl)-1,2,3,4-tetrahydroisoquinolin-7-yl)-N-(pyridin-2-yl)acetamide]: 46 nM.
The figure for `Nc1nc2c(F)cccc2c2nc(C(=O)N3CCc4ccc(NC(=O)c5ccccn5)cc4C3)cn12` [Ex-291, N-(2-(5-amino-7-fluoroimidazo[1,2-c]quinazoline-2-carbonyl)-1,2,3,4-tetrahydroisoquinolin-7-yl)picolinamide] is 47 nM; for `Nc1nc2c(F)cccc2c2nc(C(=O)NCc3cccc(Br)n3)cn12` [Ex-294, 5-amino-N-((6-bromopyridin-2-yl)methyl)-7-fluoroimidazo[1,2-c]quinazoline-2-carboxamide] it is 5.3 nM.
The same measure for `Cc1cccc(CNC(=O)c2cn3c(N)nc4c(F)cccc4c3n2)n1` [Ex-295, 5-amino-7-fluoro-N-((6-methylpyridin-2-yl)methyl)imidazo[1,2-c]quinazoline-2-carboxamide]: 6.2 nM.
